Data taken from ChEMBL document CHEMBL5214914, “Novel strategies to improve tumour therapy by targeting the proteins MCT1, MCT4 and LAT1” (Eur J Med Chem, 2021).
Blank lines part the entries; values can stand above or below the compound they belong to.

Tests used:
Raji = experiment: Cytotoxicity against human Raji cells; type: functional, cell-based
[1] = molecular target: T1, Monocarboxylate transporter 1 (Rattus norvegicus, UniProt P53987); experiment: Inhibition of MCT1 in rat RBE4 cells assessed as reduction in [14C]lactate uptake measured after 15 mins by liquid scintillation counting analysis; type: cell-based
T1 sequence (P53987 whole entry): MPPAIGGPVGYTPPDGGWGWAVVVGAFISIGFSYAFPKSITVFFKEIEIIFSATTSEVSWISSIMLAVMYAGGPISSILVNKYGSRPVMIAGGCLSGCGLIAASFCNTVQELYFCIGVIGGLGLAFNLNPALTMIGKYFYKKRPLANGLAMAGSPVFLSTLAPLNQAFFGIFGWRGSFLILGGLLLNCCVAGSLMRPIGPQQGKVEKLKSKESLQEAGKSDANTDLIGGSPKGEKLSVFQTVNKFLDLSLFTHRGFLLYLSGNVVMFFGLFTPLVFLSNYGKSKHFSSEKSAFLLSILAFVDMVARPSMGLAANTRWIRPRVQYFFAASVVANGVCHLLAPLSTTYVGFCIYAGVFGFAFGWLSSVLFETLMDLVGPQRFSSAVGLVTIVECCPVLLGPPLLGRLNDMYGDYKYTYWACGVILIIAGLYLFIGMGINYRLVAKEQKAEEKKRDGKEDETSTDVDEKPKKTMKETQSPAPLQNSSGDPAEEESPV

[2] = molecular target: T2, Large neutral amino acids transporter small subunit 1 (Homo sapiens, UniProt Q01650); experiment: Inhibition of LAT1 in human MCF7 cells assessed as inhibition of leucine uptake; type: cell-based
MCF7 = experiment: Antiproliferative activity against human MCF7 cells assessed as inhibition of cell growth; type: functional, cell-based
MIA PaCa-2 = experiment: Antitumor activity against human MIA PaCa-2 cells xenografted in ip dosed mouse assessed as prolongation of animal's mean life span; type: functional
BXPC-3 = experiment: Antitumor activity against human BXPC-3 cells xenografted in ip dosed mouse assessed as prolongation of animal's mean life span; type: functional
[3] = molecular target: T2, Large neutral amino acids transporter small subunit 1; experiment: Inhibition of LAT1 (unknown origin) expressed in S2 cells assessed as inhibition of [14C]phenylalanine uptake at 50 uM; type: cell-based
[4] = molecular target: T2, Large neutral amino acids transporter small subunit 1; experiment: Inhibition of LAT1 (unknown origin) expressed in astrocytes assessed as inhibition of [14C]phenylalanine uptake at 50 uM; type: cell-based; conditions: Astrocyte
[5] = Drug metabolism in Sprague-Dawley rat plasma at 10 uM measured after 8 hrs; type: ADME, cell-free, Sprague-Dawely; conditions: read-out: Drug metabolism
[6] = Half life in human; type: ADME

T2 sequence (Q01650 whole entry): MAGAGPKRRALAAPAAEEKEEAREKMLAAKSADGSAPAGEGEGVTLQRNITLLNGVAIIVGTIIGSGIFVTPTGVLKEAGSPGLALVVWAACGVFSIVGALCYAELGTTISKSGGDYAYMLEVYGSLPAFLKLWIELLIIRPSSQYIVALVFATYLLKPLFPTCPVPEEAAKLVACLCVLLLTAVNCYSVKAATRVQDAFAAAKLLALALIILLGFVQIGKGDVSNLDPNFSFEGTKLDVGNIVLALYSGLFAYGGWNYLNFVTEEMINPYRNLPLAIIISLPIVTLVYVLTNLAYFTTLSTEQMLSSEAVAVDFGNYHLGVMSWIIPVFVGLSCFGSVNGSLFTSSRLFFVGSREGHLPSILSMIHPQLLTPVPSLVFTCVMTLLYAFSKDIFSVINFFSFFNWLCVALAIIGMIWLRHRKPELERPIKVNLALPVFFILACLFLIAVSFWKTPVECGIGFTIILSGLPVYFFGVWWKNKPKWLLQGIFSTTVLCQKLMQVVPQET

SMILES: CC(C)Cc1nn(C)c(=O)c2c(SCCCO)n(Cc3ccc(C#CCCCOc4ccc(C[C@H](N)C(=O)O)cc4)c4ccccc34)cc12
EC50 (Raji): 0.8 nM

SMILES: CC(C)Cc1nn(C)c(=O)c2c(SCCCO)n(Cc3ccc(C#CCCCNC(=O)[C@H](N)CCC(N)=O)c4ccccc34)cc12
EC50 (Raji): 4 nM

SMILES: CC(C)Cc1nn(C)c(=O)c2c(SCCCO)n(Cc3cc(NCCCCCNC(=O)[C@H](N)CCC(N)=O)nc4ccccc34)cc12
EC50 (Raji): 0.8 nM

SMILES: N#C/C(=C\c1ccc(O)cc1)C(=O)O [alpha-CYANO-4-HYDROXYCINNAMIC ACID]
IC50 [1]: 281 nM

SMILES: CC(C)Cc1nn(C)c(=O)c2c(SCCCO)n(Cc3cnc(NCCCCCNC(=O)[C@H](N)CCC(N)=O)c4ccccc34)cc12
EC50 (Raji): 0.16 nM

IC50 [2]: 18200 nM
IC50 (MCF7): 124000 nM
SMILES: CNC(=O)COc1ccc(C2=C(C#N)C3N=C4C=CC=CC4N3C(NC(=O)c3cccc(C[C@H](N)C(=O)O)c3)=C2C#N)cc1 (stereo not given in full)

SMILES: Nc1cc(COc2c(Cl)cc(CC(N)C(=O)O)cc2Cl)c2oc(-c3ccccc3)nc2c1 (stereo not given)
ILS (MIA PaCa-2): 14 days
ILS (BXPC-3): 10 days

inhibition [3]: 90%
inhibition [4]: 90%
SMILES: NC(Cc1cc(I)c(Oc2ccc(O)c(I)c2)c(I)c1)C(=O)O (stereo not given)

metabolised at 8 h, 10 µM [5]: 20%
SMILES: C[C@@H](O)[C@H](Nc1ccn([C@@H]2O[C@H](CO)[C@@H](O)C2(F)F)c(=O)n1)C(=O)O

IC50 [1]: 66 nM
SMILES: CC(C)c1ccc(/C=C(\C#N)C(=O)O)cc1

SMILES: CC(C)Cc1nn(C)c(=O)c2c(SCCCO)n(Cc3cnc(NCCCCCN)c4ccccc34)cc12
EC50 (Raji): 0.8 nM

half-life [6]: 9 min
SMILES: Nc1ccn([C@@H]2O[C@H](CO)[C@@H](O)C2(F)F)c(=O)n1 [GEMCITABINE]
